Measured values taken from US4593090A, “Novel nitrosourea compounds, method for preparing same, and pharmaceutical composition containing same” (Gogo Kimura, priority 1981, dated 1986).
Read-outs that look alike come from different tables or passages of the source.

Tests used:
Ehrlich acites carcinoma = experiment: Growth-inhibiting effect against Ehrlich acites carcinoma; format: in vivo, male mice; settings: Mus musculus, Ehrlich, 120 h, 5 days; for response vs control in vivo at 25 mg/kg: 25 mg/kg/day ip; for response vs control in vivo at 100 mg/kg: 100 mg/kg/day ip; for response vs control in vivo at 50 mg/kg: 50 mg/kg/day ip; for response vs control in vivo at 200 mg/kg: 200 mg/kg/day ip
Description: Ehrlich acites carcinoma (1×10^7 cells) was implantated into the abdominal cavities of a 6-membered group of male mice. Test compounds (solutions or suspensions in 1% Nikohl HCO-60) were each intraperioneally administered once a day 5 successive days to the mice 24 hrs. after the implantation. Total packed cell volumes [TPCV, namely, total packed volumes of Acites carcinoma] were determined 7 days after the implantation to calculate growth ratio of tumor [T/C%; T: packed volume of Acites carcinoma in treated groups, C: packed volume of Acites carcinoma in an untreated group]. Acitivity is represented by - when T/C% is 100-66, by + when T/C% 65-41, by ++ when T/C% 40-11, and by +++ when T/C% 10-0.

[1] = Acute toxicity (LD50, Behrens-Karber method); format: in vivo, ICR mice; settings: mouse, in vivo, ip, mortality during 30 days
Description: Test compounds, dissolved or suspended in 0.5% aqueous CMC, were each intraperitoneally administered to ICR mice in a dose of 0.1 ml per 10 g body weight. LD50 (mg/kg) value of each test compound was calculated from the mortality of mice during 30 days by the Behrens-Karber method.

Leukemia L1210 = experiment: Activity against Leukemia L1210, intraperitoneal, increase in life span of mice; format: in vivo, female mice (BDF1 family); settings: for ED (maximum ILS) / ED30: Mus musculus, L1210, ip, ip once a day for 5 successive days; for ED (maximum ILS): daily dosage giving maximum increase of life span, read-out: O.D. (optimum dosage); for ED30: daily dosage increasing average survival days by 30%, read-out: ILS30; for Survivors after 60 days / Max. ILS % / Therapeutic ratio TR: ip; for Survivors after 60 days: 6-membered group; for Max. ILS %: 60-day observation, versus control; for Therapeutic ratio TR: O.D./ILS30
Outline: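 Female BDF1 mice (20 to 23 g; 6 per group) were implanted intraperitoneally with 1×10^5 L1210 cells, then dosed ip or orally once daily for 5 days starting 24 h later. Survival was followed over 60 days, and ILS% was derived from mean survival days versus untreated controls.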

| SMILES | response vs control in vivo at 25 mg/kg (Ehrlich acites carcinoma; read-out: Activity) | response vs control in vivo at 25 mg/kg (Ehrlich acites carcinoma; read-out: T/C %) | response vs control in vivo at 100 mg/kg (Ehrlich acites carcinoma; read-out: Activity) | response vs control in vivo at 100 mg/kg (Ehrlich acites carcinoma; read-out: T/C %) | LD50 at 720 h [1] | ED (maximum ILS) (Leukemia L1210) | ED30 (Leukemia L1210) | Survivors after 60 days (Leukemia L1210) | Max. ILS % (Leukemia L1210) | Therapeutic ratio TR (Leukemia L1210) | response vs control in vivo at 50 mg/kg (Ehrlich acites carcinoma; read-out: Activity) | response vs control in vivo at 50 mg/kg (Ehrlich acites carcinoma; read-out: T/C %) | response vs control in vivo at 200 mg/kg (Ehrlich acites carcinoma; read-out: Activity) | response vs control in vivo at 200 mg/kg (Ehrlich acites carcinoma; read-out: T/C %) |
| --- | --- | --- | --- | --- | --- | --- | --- | --- | --- | --- | --- | --- | --- | --- |
| COc1cccc(CO[C@H]2O[C@H](CN(CC(C)C)C(=O)N(CCCl)N=O)[C@@H](O)[C@H](O)[C@H]2O)c1OC [Compound 52, 3-isobutyl-3-(2,3-dimethoxybenzyl α-D-glucopyranose-6-yl)-1-(2-chloroethyl)-1-nitrosourea] | 0 to 10% | 0% | 0 to 10% | 0% | 360 mg/kg | 120 mg/kg | 3.62 mg/kg | 4/6 | > 420% | 33.1 | – | – | – | – |
| CCCCOC1OC(CO)C(O)C(O)C1N(CC1CCCO1)C(=O)N(CCCl)N=O [Compound 63, 3-tetrahydrofurfuryl-3-(n-butyl α-D-glucopyranose-2-yl)-1-(2-chloroethyl)-1-nitrosourea] | 0 to 10% | 0% | 0 to 10% | 0% | 595 mg/kg | 190 mg/kg | 5.31 mg/kg | 3/6 | > 350% | 35.8 | – | – | – | – |
| CCCCOC1OC(CO)C(O)C(N(CCCOC)C(=O)N(CCCl)N=O)C1O [Compound 82, 3-(3-methoxy-n-propyl)-3-(n-butyl α-D-glucopyranose-3-yl)-1-(2-chloroethyl)-1-nitrosourea] | 0 to 10% | 0% | 0 to 10% | 0% | 655 mg/kg | 200 mg/kg | 5.5 mg/kg | 3/6 | > 345% | 30.4 | – | – | – | – |
| COCC(C)N(C(=O)N(CCCl)N=O)C1C(CO)OC(OCC(C)C)C(O)C1O [Compound 94, 3-(1-methyl-2-methoxyethyl)-3-(isobutyl α-D-glucopyranose-4-yl)-1-(2-chloroethyl)-1-nitrosourea] | 0 to 10% | 0% | 0 to 10% | 0% | 520 mg/kg | 160 mg/kg | 4.43 mg/kg | 3/6 | > 360% | 36.1 | – | – | – | – |
| CCCCO[C@H]1O[C@H](CN(C)C(=O)N(CCCl)N=O)[C@H](O)[C@H](O)[C@H]1O [Compound 105, 3-methyl-3-(n-butyl α-D-galactopyranose-6-yl)-1-(2-chloroethyl)-1-nitrosourea] | – | – | – | – | 320 mg/kg | 130 mg/kg | 3.59 mg/kg | 3/6 | > 320% | 36.2 | 0 to 10% | 5.7% | 0 to 10% | 0% |
| CCN(C[C@H]1O[C@H](OCC(C)C)[C@H](O)[C@@H](O)[C@H]1O)C(=O)N(CCCl)N=O [Compound 108, 3-ethyl-3-(isobutyl α-D-galactopyranose-6-yl)-1-(2-chloroethyl)-1-nitrosourea] | – | – | – | – | 390 mg/kg | 130 mg/kg | 4.24 mg/kg | 3/6 | > 320% | 30.7 | 0 to 10% | 7.8% | 0 to 10% | 0% |
| CCOCCN(C[C@H]1O[C@H](OCC(C)C)[C@H](O)[C@@H](O)[C@H]1O)C(=O)N(CCCl)N=O [Compound 109, 3-(2-ethoxyethyl)-3-(isobutyl α-D-galactopyranose-6-yl)-1-(2-chloroethyl)-1-nitrosourea] | 0 to 10% | 0% | 0 to 10% | 0% | 655 mg/kg | 200 mg/kg | 3.74 mg/kg | 4/6 | > 430% | 53.5 | – | – | – | – |
| CCC(C)N(C[C@H]1O[C@H](OCCOCOC)[C@H](O)[C@@H](O)[C@H]1O)C(=O)N(CCCl)N=O (stereo partly shown) [Compound 115] | 0 to 10% | 0% | 0 to 10% | 0% | 600 mg/kg | 200 mg/kg | 3.2 mg/kg | 6/6 | > 700% | 62.5 | – | – | – | – |
| COCC(C)N(C(=O)N(CCCl)N=O)[C@H]1[C@@H](OCC(C)C)O[C@H](CO)[C@H](O)[C@@H]1O (stereo partly drawn) [Compound 124, 3-(1-methyl-2-methoxyethyl)-3-(isobutyl α-D-galactopyranose-2-yl)-1-(2-chloroethyl)-1-nitrosourea] | 0 to 10% | 0% | 0 to 10% | 0% | 745 mg/kg | 210 mg/kg | 5.3 mg/kg | 3/6 | > 360% | 39.6 | – | – | – | – |
| COCCCN(C[C@H]1O[C@H](OCC(C)C)[C@@H](O)[C@@H](O)[C@H]1O)C(=O)N(CCCl)N=O [Compound 146, 3-(3-methoxy-n-propyl)-3-(isobutyl α-D-talopyranose-6-yl)-1-(2-chloroethyl)-1-nitrosourea] | 0 to 10% | 0% | 0 to 10% | 0% | 595 mg/kg | 180 mg/kg | 3.19 mg/kg | 5/6 | > 620% | 56.4 | – | – | – | – |
| COCCCO[C@H]1O[C@H](CN(C(=O)N(CCCl)N=O)C(C)(C)C)[C@@H](O)[C@H](O)[C@H]1O [Compound 179, 3-tert-butyl-3-(3-methoxy-n-propyl α-D-glucopyranose-6-yl)-1-(2-chloroethyl)-1-nitrosourea] | 0 to 10% | 0% | 0 to 10% | 0% | 560 mg/kg | 180 mg/kg | 2.79 mg/kg | 6/6 | > 700% | 64.4 | – | – | – | – |
| CC(C)(C)CN(C[C@H]1O[C@H](OCC2CCCO2)[C@H](O)[C@@H](O)[C@@H]1O)C(=O)N(CCCl)N=O (stereo partly drawn) [Compound 188, 3-neopentyl-3-(tetrahydrofurfuryl α-D-glucopyranose-6-yl)-1-(2-chloroethyl)-1-nitrosourea] | 0 to 10% | 0% | 0 to 10% | 0% | 550 mg/kg | 170 mg/kg | 2.72 mg/kg | 6/6 | > 700% | 62.5 | – | – | – | – |
| CC(C)(C)N(C[C@H]1O[C@H](OCC2CCCO2)[C@H](O)[C@@H](O)[C@@H]1O)C(=O)N(CCCl)N=O (stereo partly drawn) [Compound 193, 3-tert-butyl-3-(tetrahydrofurfuryl α-D-glucopyranose-6-yl)-1-(2-chloroethyl)-1-nitrosourea] | 0 to 10% | 0% | 0 to 10% | 0% | 550 mg/kg | 160 mg/kg | 2.52 mg/kg | 6/6 | > 700% | 63.4 | – | – | – | – |
